Measurements reported in patent publication US8940775B2, “Use of derivatives of pentaphyrine as antimicrobial and disinfectant agents” (Universita' Degli Studi di Udine, priority 2010, dated 2015).
Values joined by “and” are separate entries in the source; they are usually repeats but may differ in a detail not shown here. Identical values can stand only once.

How the values were obtained:
Format in all cases: cell-based
E. hirae ATCC 10541 = assay: Photo-oxidation test, antibacterial activity on E. hirae; conditions: PCCox 20 μM; 120 min of illumination with lamp B at 50 W/m2; preliminary tests
Method: The bacterial strains used in the photo-oxidation tests are S. aureus ATCC 6538 and E. hirae ATCC 10541. The bacterial culture in exponential phase is obtained by inoculation in 10 mL of Nutrient Broth No. 2 and incubation at 37° C. Next the culture is centrifuged for 15 minutes at 3200 rpm and the pellet is resuspended in PBS 0.01 M in order to obtain a bacterial concentration equal to about 10^8 CFU/mL (Abs600≈0.1). This suspension was used for the photo-oxidation tests in the conditions described hereunder. […]
(§1) The luminous intensity supplied by the light sources was evaluated by radiometer (DeltaOhm HD 2302.0 equipped with LP 471 RAD sensor).
(§2) The photo-oxidation tests were performed on a culture volume equal to 1 mL, using a plate with 48 wells with diameter of 1 cm and capacity of 1.5 mL. […] The intrinsic toxicity, i.e. the toxicity not induced by the light, of the PCCox was evaluated on bacterial cultures of S. aureus and E. hirae incubated for 60 minutes in the dark with various concentrations of PCCox: in FIG. 3 are reported the results obtained on S. aureus; similar results were obtained with E. hirae. […]
(§3) At each time interval, a volume of bacterial suspension of 100 μL is taken and is diluted in PBS 0.01 M using an optimum dilution factor for the bacterial culture. […] These samples are analysed at the end of the treatment. […]

[1] = system: Gram-positive bacterial population of the genus Enterococcus; assay: Photo-oxidation test on primary effluent of a purification plant; conditions: PCCox 20 μM
Method: FIG. 12. Photo-oxidation test for evaluating the antibacterial activity of the pentaphyrine PCCox (concentration of solution 20 μM) on a real sample, in this case primary effluent of a purification plant for treating municipal waste. The activity of PCCox was evaluated with respect to the Gram-positive bacterial population of the genus Enterococcus, which is present in the sample treated at a concentration equal to 10^4 CFU/mL. The test was carried out with a source of blue light (473 nm) at a luminous intensity equal to 50 W/m^2. The percentage survival of enterococci following treatment with PCCox, in the experimental conditions, is equal to 31%. […]
as §2, §3

S. aureus ATCC 6538 = assay: Photo-oxidation test, antibacterial activity on S. aureus; conditions: for Percentage bacterial load die-off: initial 10^8 CFU/ml S. aureus, 100 W lamp, 40 W/m^2
Method: The bacterial strains used in the photo-oxidation tests are S. aureus ATCC 6538 and E. hirae ATCC 10541. The bacterial culture in exponential phase is obtained by inoculation in 10 mL of Nutrient Broth No. 2 and incubation at 37° C. Next the culture is centrifuged for 15 minutes at 3200 rpm and the pellet is resuspended in PBS 0.01 M in order to obtain a bacterial concentration equal to about 10^8 CFU/mL (Abs600≈0.1). This suspension was used for the photo-oxidation tests in the conditions described hereunder.
The photo-oxidative treatment was carried out using various light sources: • Lamp A: 100 W incandescent lamp, able to irradiate the bacterial suspension with a fluence rate equal to 40 W/m^2. The […] component of the luminous radiation is removed by filtering the light through a layer of water equal to 0.5 cm; • Lamp B: blue LED lamp, with maximum emission at 473 nm, connected to a power supply that controls its fluence rate between 24 and 50 W/m^2; • Lamp C: lamp with blue LED, with maximum emission at 473 nm, with a fluence rate equal to 10 W/m^2; • Lamp D: lamp with red LED, with maximum emission at 635 nm, with a fluence rate equal to 10 W/m^2.
as §1
The photo-oxidation tests were performed on a culture volume equal to 1 mL, using a plate with 48 wells with diameter of 1 cm and capacity of 1.5 mL. The multi-well plate is positioned above a magnetic stirrer and under the light source. A volume of a 330 μM solution of PCCox in DMSO is added to the bacterial suspension in order to obtain various concentrations of the photosensitizer (0.05 μM, 0.5 μM, 5 μM and 20 μM). The solution is stirred by small magnetic anchors throughout the treatment. The intrinsic toxicity, i.e. the toxicity not induced by the light, of the PCCox was evaluated on bacterial cultures of S. aureus and E. hirae incubated for 60 minutes in the dark with various concentrations of PCCox: in FIG. 3 are reported the results obtained on S. aureus; similar results were obtained with E. hirae. The percentage of DMSO present in the culture treated never exceeds 6%. […] In FIG. 4 are reported the results obtained with E. hirae; similar results were obtained with S. aureus.
The duration of the treatment is different for S. aureus (15, 30 and 60 minutes) and E. hirae (60 and 120 minutes).
The influence of a step of incubation of the bacterial culture in the dark in the presence of the molecule was evaluated before the irradiation step. In FIG. 5 are reported the results obtained with S. aureus.
At each time interval, a volume of bacterial suspension of 100 μL is taken and is diluted in PBS 0.01 M using an optimum dilution factor for the bacterial culture. From each dilution, 100 μL of bacterial suspension is taken (1000 μL is taken from the samples of primary effluent), seeded in MSA medium for S. aureus and Mf-Enterococcus Selective Agar for E. hirae on Petri dishes and incubated in the dark at 37° C. for 18-24 hours. The same procedure is carried out for the control samples, used for testing the activity of PCCox in the dark and the vitality of the bacterial suspension, without photosensitizer, exposed to the light or incubated in the dark. These samples are analysed at the end of the treatment. Each test is carried out at least in triplicate, and the survival data in terms of CFU/mL are expressed as the mean and standard deviation. The percentage survival is calculated respect to the concentration of bacteria measured on the control sample exposed to the light, analysed at the end of the test.

S. aureus = assay: Intrinsic toxicity of PCCox in the dark on bacterial cultures; conditions: no light activation
Method: FIG. 3. Toxicity test of the pentaphyrine PCCox evaluating the vitality of a bacterial culture of S. aureus incubated for 60 minutes in the dark with various concentrations of 20-(4-carboxyphenyl)-2,13-dimethyl-3,12-diethyl-[22] pentaphyrine (PCCox) (0.05 μM, 0.5 μM and 5 μM).
The photo-oxidation tests were performed on a culture volume equal to 1 mL, using a plate with 48 wells with diameter of 1 cm and capacity of 1.5 mL. The multi-well plate is positioned above a magnetic stirrer and under the light source. A volume of a 330 μM solution of PCCox in DMSO is added to the bacterial suspension in order to obtain various concentrations of the photosensitizer (0.05 μM, 0.5 μM, 5 μM and 20 μM). […] The intrinsic toxicity, i.e. the toxicity not induced by the light, of the PCCox was evaluated on bacterial cultures of S. aureus and E. hirae incubated for 60 minutes in the dark with various concentrations of PCCox: in FIG. 3 are reported the results obtained on S. aureus; similar results were obtained with E. hirae. […]
as §3, with “treatment. Each test is carried out at least in triplicate, and the survival data in terms of CFU/mL are expressed as the mean and standard deviation.” for “treatment.”

## CCC1=C(C)c2cc3nc(c(-c4ccc(C(=O)O)cc4)c4ccc(cc5nc(cc6ccc(cc1n2)[nH]6)C(CC)=C5C)[nH]4)C=C3 [PCCox, 20-(4-carboxyphenyl)-2,13-dimethyl-3,12-diethyl-[22] pentaphyrine]
E. hirae ATCC 10541
  die-off: 4 log
[1]; primary effluent, 10^4 CFU/mL, blue light 473 nm, 50 W/m^2
  percentage survival of enterococci: 31%
[1]; primary wastewater, in terms of E. hirae, blue light 50 W/m^2
  die-off: up to 70%
S. aureus ATCC 6538; PCCox 0.05 μM, 15 min
  Percentage bacterial load die-off: 99.77%
S. aureus ATCC 6538; PCCox 0.05 μM, 30 min
  Percentage bacterial load die-off: 99.9% and 99.89%
S. aureus ATCC 6538; PCCox 0.05 μM, 30 min of treatment, lamp A
  bacterial load die-off: 3 log
S. aureus ATCC 6538; PCCox 0.05 μM, 60 min
  Percentage bacterial load die-off: 99.97%
S. aureus ATCC 6538; PCCox 0.5 μM, 15 min
  Percentage bacterial load die-off: 100%
S. aureus ATCC 6538; PCCox 0.5 μM, 30 min
  Percentage bacterial load die-off: 99.99%
S. aureus ATCC 6538; PCCox 0.5 μM, 60 min
  Percentage bacterial load die-off: 100%
S. aureus ATCC 6538; PCCox 5 μM, 15 min
  Percentage bacterial load die-off: 99.9988%
S. aureus ATCC 6538; PCCox 5 μM, 30 min
  Percentage bacterial load die-off: 100%
S. aureus ATCC 6538; PCCox 5 μM, 60 min
  Percentage bacterial load die-off: 100%
S. aureus ATCC 6538; PCCox 5 μM, 60 min with lamp A (100 W, 40 W/m^2), initial load 10^11-10^13 CFU/ml
  die-off: 10 log
S. aureus ATCC 6538; PCCox 5 μM, blue LED, maximum emission 473 nm, fluence rate between 24 and 50 W/m^2
  die-off: 10 log
S. aureus ATCC 6538; PCCox 5 μM, lamp C blue LED at 10 W/m^2, 60 min of illumination, pre-incubation 1 h in the dark
  bactericidal effect: 3 log
S. aureus ATCC 6538; PCCox 5 μM, with or without pre-incubation in the dark for 1 h, blue light 24 W/m^2
  influence of incubation time on bactericidal efficiency: not influenced in any way by the incubation time
S. aureus ATCC 6538; PCCox 5 μM, within 15 min of exposure to the light, initial load 10^8-10^13 CFU/ml
  initial bacterial load destroyed: 99.999%
S. aureus ATCC 6538; white light (lamp A, 40 W/m^2), after 15 min of irradiation
  bactericidal effect (phototoxic efficacy): 5 log
S. aureus
  bactericidal activity in the dark: does not have bactericidal activity in the dark
